The values that follow come from patent US11173124B2, “Oral delivery of GLP-1 peptide analogs” (MEDIMMUNE LIMITED, priority 2017, dated 2021).

Starred links: 1 amine or outer side, 2 acyl side, 3 side chain; linkers in the order of their positions; H or OH if unused. Non-standard residues stand in square brackets, D forms with d. Residues, ends and D or L forms follow the SMILES beside them. Groups on a side chain read outwards from the residue. *: point of attachment. γGlu = O=C(O)[C@H](CCC(=O)[*:2])N[*:1]; αMeF = C[C@](N)(Cc1ccccc1)C(=O)O; αMeK = C[C@](N)(CCCCN)C(=O)O; Lauroyl = CCCCCCCCCCCC(=O)*; αMeS = C[C@](N)(CO)C(=O)O; AEEA = NCCOCCOCC(=O)O; Aib = CC(C)(N)C(=O)O

The data set can be described thus: Third rat ID infusion study, stabilized peptides vs semaglutide (Example 6). Conditions: in vivo. On the procedure:
The third rat ID infusion study was performed to compare bioavailability of stabilized peptides MEDI7219 (SEQ ID NO:2) and SEQ ID NO:6 with that of semaglutide, H-His-Aib-[…]AEEAc-AEEAc-γ-Glu-17-carboxyheptadecanoyl)-[…]OH (SEQ ID NO:11), (Novo Nordisk), an un-stabilized GLP-1 peptide analog, that only has Aib in its sequence for protection from circulating DPP-IV peptidases, (Table 7 and FIG. 2B).

As usually defined, the half-life is how long it takes for the measured level to halve. A lower half-life goes with fast loss. The term AUC denotes the area under the concentration-time curve, a measure of exposure. A lower AUC goes with less exposure. A word on the Cmax: it is the highest concentration seen after dosing. `CCCCCCCCCCCC(=O)N[C@@H](CCC(=O)NCCOCCOCC(=O)NCCOCCOCC(=O)NCCCC[C@H](NC(=O)[C@H](C)NC(=O)[C@@H](NC(=O)[C@](C)(Cc1ccccc1)NC(=O)[C@H](CCC(=O)O)NC(=O)[C@](C)(CCCCN)NC(=O)[C@H](C)NC(=O)[C@H](C)NC(=O)[C@H](CCC(=O)O)NC(=O)CNC(=O)[C@H](CCC(=O)O)NC(=O)[C@H](CC(C)C)NC(=O)[C@H](CCCCNC(=O)COCCOCCNC(=O)COCCOCCNC(=O)CC[C@H](NC(=O)CCCCCCCCCCC)C(=O)O)NC(=O)[C@H](CO)NC(=O)[C@](C)(CO)NC(=O)[C@@H](NC(=O)[C@H](CC(=O)O)NC(=O)[C@H](CO)NC(=O)[C@@H](NC(=O)[C@](C)(Cc1ccccc1)NC(=O)[C@H](CO)NC(=O)CNC(=O)[C@H](CCC(=O)O)NC(=O)C(C)(C)NC(=O)[C@@H](N)Cc1c[nH]cn1)[C@@H](C)O)C(C)C)[C@@H](C)CC)C(=O)N[C@H](C(=O)N[C@H](C(=O)N[C@@H](CCC(=O)O)C(=O)NCC(=O)NCC(N)=O)C(C)C)C(C)C)C(=O)O` [MEDI7219, Free-H-[AIB]-EGS-[αMePhe]-TSDV-[αMeSer]-SK[(PEG2)2-γE-Lauroyl]-LEGEAA-[αMeLys]-E-[αMePhe]-IAK[(PEG2)2-γE-Lauroyl]-VVEGG-amide] (H-H[Aib]EGS[αMeF]TSDV[αMeS]SK([AEEA-AEEA-γGlu-Lauroyl])LEGEAA[αMeK]E[αMeF]IAK([AEEA-AEEA-γGlu-Lauroyl])VVEGG-NH2): the F entry is “significantly higher absolute bioavailability via ID route than semaglutide” and the half-life was 10.4 h. Also, where the note is “iv, 0.01 mg/kg”, the AUC turned out to be 1.59 µg·h/mL, the highest level (Cmax) was 0.264 µg/mL, the F came out at 100% and the half-life was 17 h.
